Data published in patent US20260231939A1, “ARTHROPOD CONTROL COMPOSITIONS” (Firmenich SA, priority 2022, published 2026).
Where two headings read alike, the source gives them in different places.

Tested on: Aedes aegypti
Assay: Warm Body assay, mosquito landings on the baited warm body
Format: in vivo
Details: Aedes aegypti, read-out: Percentage of repellence of mosquitoes landing on the warm body
Description: The controlling effect according to the present invention was assessed using an adapted Warm Body assay as defined in Kröber T, Kessler S, Frei J, Bourquin M, Guerin P M. 2010. J Am Mosq Control Assoc. 26:381-386. In this in-vitro assay the number of mosquito landing on a warm body, simulating an attractive host treated with the tested stimuli, was measured in order to assess the repellence effect.
The published protocol has been adapted as the switch from Anopheles gambiae to Ae. aegypti led to a decrease of mosquitoes placed in the tested cage due to the size difference (i.e. 30 mosquitoes instead of 50) and to an increase of lighting since Ae. aegypti is a diurnal mosquitoes (i.e. 150 lux instead of 4 lux).
On the sandblasted glass Petri dish covering the warm body (28.3 cm^2), 100 μL of the compounds diluted at different concentrations in ethanol was applied. The number of mosquito landing on the warm body was counted for each stimulus. Number of landings on pure ethanol (solvent) control treatment was used to normalize the data and calculate the percentage of repellence.

[1] = more complex lactones (types A, B, C), 0.016 mg/mL
[2] = more complex lactones (types A, B, C), 0.4 mg/mL
[3] = more complex lactones (types A, B, C), 10 mg/mL
[4] = γ-lactones, 0.016 mg/mL in ethanol
[5] = γ-lactones, 0.4 mg/mL in ethanol
[6] = γ-lactones, 10 mg/mL in ethanol

Structure (SMILES)	pest or weed control at 16 µg/mL [1]	pest or weed control at 400 µg/mL [2]	pest or weed control at 10000 µg/mL [3]	pest or weed control at 16 µg/mL [4]	pest or weed control at 400 µg/mL [5]	pest or weed control at 10000 µg/mL [6]	further results
O=C1CCC2(CCCCC2)O1 [1-oxaspiro[4.5]decan-2-one]	54%	79%	100%	–	–	–	–
CCCCCC1C=CC(=O)O1 (stereo not shown) [2-pentyl-2H-furan-5-one]	0%	53%	100%	–	–	–	–
CC(C)C1OC(=O)C1(C)C (stereo not shown) [3,3-dimethyl-4-propan-2-yloxetan-2-one]	–	–	–	–	–	–	pest or weed control at 16 µg/mL (β- and ε-lactones, 0.016 mg/mL): 36%; pest or weed control at 400 µg/mL (β- and ε-lactones, 0.4 mg/mL): < 40%; pest or weed control at 10000 µg/mL (β- and ε-lactones, 10 mg/mL): 100%
O=C1CCC2CCCCC2O1 (stereo not shown) [3,4,4a,5,6,7,8,8a-octahydrochromen-2-one]	35%	90%	100%	–	–	–	–
C=CC=CC1C(=O)OC1CCCCC (stereo not shown) [3-buta-1,3-dienyl-4-pentyloxetan-2-one]	–	–	–	–	–	–	pest or weed control at 400 µg/mL (β- and ε-lactones, 0.4 mg/mL): > 80%
CCC=C1OC(=O)c2ccccc21 [3-propylidene-2-benzofuran-1-one]	83%	93%	86%	–	–	–	–
CC1(C)CC=CC2(C)OC(=O)CC12 (stereo not shown) [4,4,7a-trimethyl-3a,5-dihydro-3H-1-benzofuran-2-one]	83%	92%	100%	–	–	–	–
CCCCCC1OC(=O)CC1C (stereo not shown) [4-methyl-5-pentyloxolan-2-one]	36%	72%	100%	–	–	–	–
CC/C=C\CC/C=C/C1CCC(=O)O1 (stereo not shown) [5-[(1E,5Z)-octa-1,5-dienyl]oxolan-2-one]	–	–	–	52%	65%	97%	–
CC/C=C/CCCCC1CCC(=O)O1 (stereo not shown) [5-[(E)-oct-5-enyl]oxolan-2-one]	–	–	–	0%	87%	100%	–
CC/C=C\CCCCC1CCC(=O)O1 (stereo not shown) [5-[(Z)-oct-5-enyl]oxolan-2-one]	–	–	–	0%	75%	100%	–
C=CCCC1CCC(=O)O1 (stereo not shown) [5-but-3-enyloxolan-2-one]	–	–	–	57%	75%	100%	–
CCCCC1CCC(=O)O1 (stereo not shown) [5-butyloxolan-2-one]	–	–	–	41%	44%	100%	–
CCC=CCCCCCCC1CCC(=O)O1 (stereo not shown) [5-dec-7-enyloxolan-2-one]	–	–	–	17%	47%	85%	–
CCCCCCCCCCC1CCC(=O)O1 (stereo not shown) [5-decyloxolan-2-one]	–	–	–	2%	14%	60%	–
CCC1CCC(=O)O1 (stereo not shown) [5-ethyloxolan-2-one]	–	–	–	0%	16%	74%	–
CCCCCCCC1=COC(=O)CC1 [5-heptyl-3,4-dihydro-2H-pyran-2-one]	0%	95%	100%	–	–	–	–
CCCCCCCC1CCC(=O)O1 (stereo not shown) [5-heptyloxolan-2-one]	–	–	–	15%	28%	70%	–
CCCCC=CC1CCC(=O)O1 (stereo not shown) [5-hex-1-enyloxolan-2-one]	–	–	–	46%	87%	95%	–
CCC=CCCC1(C)CCC(=O)O1 (stereo not shown) [5-hex-3-enyl-5-methyloxolan-2-one]	–	–	–	39%	79%	96%	–
CCCCCCC1=COC(=O)CC1 [5-hexyl-3,4-dihydro-2H-pyran-2-one]	11%	75%	98%	–	–	–	–
CCCCCCC1(C)CCC(=O)O1 (stereo not shown) [5-hexyl-5-methyloxolan-2-one]	43%	75%	97%	–	–	–	–
CCCCCCC1CCC(=O)O1 (stereo not shown) [5-hexyloxolan-2-one]	–	–	–	0%	69%	92%	–
